Assay results: patent US20190038209A1, “Using Spectral CT to Diagnose Thyroid Nodules” (BOARD OF REGENTS, THE UNIVERSITY OF TEXAS SYSTEM, priority 2016, published 2019)

Test: Spectral CT iodine-no-water map of rat thyroid before and after oral potassium iodide
Format: in vivo
Settings: Fischer rats, 654 mg potassium iodide (500 mg iodine) oral gavage, 10 hours of uptake; baseline 1.5 mg I/mL
Description: Next, a Philips IQon Spectral CT scanner was used to obtain in vivo animal data. Three healthy female Fischer rats ranging from 150 g to 250 g mass were each anesthetized using 2.5% isoflurane and scanned in a supine position using the highest resolution settings for the IQon Spectral CT clinical scanner (0.625 mm slice thickness with 0.20 mm in-plane pixel resolution). The baseline endogenous iodine levels within the rat thyroid were measured using the iodine-no-water map and averaged 1.5 mg I/mL. These levels are similar to the baseline endogenous iodine levels found within healthy human thyroid tissue. The rats were then each given a bolus dose of 654 mg of potassium iodide (equivalent to 500 mg of iodine) that was dissolved in 1 mL of water and administered orally using a gavage. After 10 hours of uptake the rats were again anesthetized with 2.5% isoflurane and scanned a second time on the IQon Spectral CT using the same settings as before. The iodine levels within the rat thyroid now averaged 3.0 mg I/mL, or a 100% increase in iodine. […] Generally, a 500 mg dose of oral iodine given to humans can increase the level of organified iodine in the thyroid tissue (after a full 24 hours of uptake) from 1.5 mg I/mL to 5-10 mg I/ml depending on total thyroid volume. […]

[I-].[K+] [potassium iodide]
iodine levels within the rat thyroid (average): 3.0 mg I/mL
